In patent US9694016B2 (Novartis AG, priority 2013, dated 2017):
Where two headings read alike, the source gives them in different places.

Target: b-Raf (V600E) (Homo sapiens (Human), UniProt P15056, V600E)
Conditions: read-out: b-Raf IC-50, AlphaScreen
[1] = 60 min pre-incubation, 3 hours reaction
[2] = 60 min pre-incubation, reaction 3 hours at room temperature

b-Raf (V600E), sequence (P15056 whole entry V600E): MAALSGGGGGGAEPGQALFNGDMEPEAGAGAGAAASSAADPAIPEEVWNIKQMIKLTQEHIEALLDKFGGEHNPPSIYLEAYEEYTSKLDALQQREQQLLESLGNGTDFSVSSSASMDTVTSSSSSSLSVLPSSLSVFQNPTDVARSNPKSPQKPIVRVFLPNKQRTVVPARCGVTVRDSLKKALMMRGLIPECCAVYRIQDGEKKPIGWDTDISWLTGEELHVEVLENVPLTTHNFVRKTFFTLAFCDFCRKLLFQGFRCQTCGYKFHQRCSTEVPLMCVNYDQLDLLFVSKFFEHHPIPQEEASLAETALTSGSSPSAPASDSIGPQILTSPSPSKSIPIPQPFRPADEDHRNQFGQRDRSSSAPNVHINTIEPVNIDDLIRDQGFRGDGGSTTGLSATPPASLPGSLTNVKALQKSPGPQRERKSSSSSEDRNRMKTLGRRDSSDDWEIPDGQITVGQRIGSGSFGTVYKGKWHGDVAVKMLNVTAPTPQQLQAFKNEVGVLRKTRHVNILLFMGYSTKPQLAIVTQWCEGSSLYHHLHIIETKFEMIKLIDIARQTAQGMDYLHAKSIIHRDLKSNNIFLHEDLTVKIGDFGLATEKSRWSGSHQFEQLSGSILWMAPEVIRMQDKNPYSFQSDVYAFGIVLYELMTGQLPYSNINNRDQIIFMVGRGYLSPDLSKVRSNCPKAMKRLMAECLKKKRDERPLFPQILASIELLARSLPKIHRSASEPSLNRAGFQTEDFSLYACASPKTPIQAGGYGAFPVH

| Structure (SMILES) | IC50 [1] [nM] | IC50 [2] [nM] | also measured |
| --- | --- | --- | --- |
| Cc1ccc(NC(=O)c2ccnc(C(C)(F)F)c2)cc1-c1cc(N2CCOCC2)c(OC2CCOCC2)nn1 [Example 579, 2-(1,1-difluoroethyl)-N-(4-methyl-3-(5-morpholino-6-((tetrahydro-2H-pyran-4-yl)oxy)pyridazin-3-yl)phenyl)isonicotinamide] | 0.6 | – | – |
| Cc1ncc(NC(=O)c2ccnc(C(C)(F)F)c2)cc1-c1cc(N2CCO[C@H](CO)C2)n(C)c(=O)c1 [Example 530, (S)-2-(1,1-difluoroethyl)-N-(6′-(2-(hydroxymethyl)morpholino)-1′,2-dimethyl-Z-oxo-1′,2′-dihydro-[3,4′-bipyridin]-5-yl)isonicotinamide] | 51.3 | – | – |
| Cn1cc(-c2cc(C(=O)Nc3cccc(C(F)F)c3)ccc2Cl)cc(N2CCOCC2)c1=O [Example 426, 4-chloro-N-(3-(difluoromethyl)phenyl)-3-(1-methyl-5-morpholino-6-oxo-1,6-dihydropyridin-3-yl)benzamide] | – | – | IC50 (Table 2, 3 hours reaction): 2.4 nM |
| Cc1ccc(NC(=O)c2ccnc(C(C)(C)F)c2)cc1-c1cc(N2CCOCC2)c(OCCO)nn1 [Example 588, 2-(2-fluoropropan-2-yl)-N-(3-(6-(2-hydroxyethoxy)-5-morpholinopyridazin-3-yl)-4-methylphenyl)isonicotinamide] | 2.2 | – | – |
| Cn1c(N2CCOCC2)cc(-c2cc(NC(=O)c3ccnc(C(C)(F)F)c3)cnc2Cl)cc1=O [Example 513, N-(2-chloro-1′-methyl-6′-morpholino-2′-oxo-1′,2′-dihydro-[3,4′-bipyridin]-5-yl)-2-(1,1-difluoroethyl)isonicotinamide] | 2.4 | – | – |
| Cc1ccc(NC(=O)c2ccnc(C(F)F)c2)cc1-c1cc(OCCO)nc(N2CCOCC2)c1 [Example 1160, 2-(difluoromethyl)-N-(3-(2-(2-hydroxyethoxy)-6-morpholinopyridin-4-yl)-4-methylphenyl)isonicotinamide] | – | 0.55 | – |
| Cc1ncc(NC(=O)c2cccc(C(F)(F)F)c2)cc1-c1cc(N2CCOCC2)nc(NC(C)(C)CO)n1 [Example 752, N-(5-(2-((1-hydroxy-2-methylpropan-2-yl)amino)-6-morpholinopyrimidin-4-yl)-6-methylpyridin-3-yl)-3-(trifluoromethyl)benzamide] | 1.8 | – | – |
| Cc1ncc(NC(=O)c2cccc(C(F)(F)F)c2)cc1-c1ccnc(N2CCOCC2=O)c1 [Example 1135, N-(2-methyl-2′-(3-oxomorpholino)-[3,4′-bipyridin]-5-yl)-3-(trifluoromethyl)benzamide] | – | 43 | – |
| Cc1ccc(NC(=O)c2ccnc(C(F)(F)F)c2)cc1-c1cc(OCCO)nc(N2CCOCC2)c1 [Example 1156, N-(3-(2-(2-hydroxyethoxy)-6-morpholinopyridin-4-yl)-4-methylphenyl)-2-(trifluoromethyl)isonicotinamide] | – | 0.73 | – |
| Cc1ncc(NC(=O)c2ccnc(C(C)(C)C#N)c2)cc1-c1cc(N2CCOCC2)c2nccn2c1 [Example 881, 2-(2-cyanopropan-2-yl)-N-(6-methyl-5-(8-morpholinoimidazo[1,2-a]pyridin-6-yl)pyridin-3-yl)isonicotinamide] | – | 32.6 | – |
| Cc1ccc(NC(=O)c2ccnc(C(C)(C)O)c2)cc1-c1cc(N2CCOCC2)c(S(C)(=O)=O)nn1 [Example 932, 2-(2-hydroxypropan-2-yl)-N-(4-methyl-3-(6-(methylsulfonyl)-5-morpholinopyridazin-3-yl)phenyl)isonicotinamide] | – | 6.89 | – |
| CCNc1nc(-c2cc(NC(=O)c3ccnc(C(C)(F)F)c3)ccc2C)cc(N2CCOCC2)n1 [Example 697, 2-(1,1-difluoroethyl)-N-(3-(2-(ethylamino)-6-morpholinopyrimidin-4-yl)-4-methylphenyl)isonicotinamide] | 1 | – | – |
| Cc1ncc(NC(=O)c2cc(C(C)(C)C#N)ccn2)cc1-c1cnc(OC2CC3(COC3)C2)c(N2CCOCC2)c1 [Example 970, N-(6′-(2-oxaspiro[3.3]heptan-6-yloxy)-2-methyl-5′-morpholino-[3,3′-bipyridin]-5-yl)-4-(2-cyanopropan-2-yl)picolinamide] | – | 8.79 | – |
| Cc1cc(C(=O)Nc2cnc(C)c(-c3cc(N4CCOCC4)c(=O)n(C)c3)c2)n(C)n1 [Example 376, N-(1′,2-dimethyl-5′-morpholino-6′-oxo-1′,6′-dihydro-[3,3′-bipyridin]-5-yl)-1,3-dimethyl-1H-pyrazole-5-carboxamide] | – | – | IC50 (Table 2, 3 hours reaction): 2800 nM |
| Cc1ncc(NC(=O)c2cc(CN(C)C)cc(C(F)(F)F)c2)cc1-c1cnc(C#N)c(N2CCOCC2)c1 [Example 249, N-(6′-cyano-2-methyl-5′-morpholino-[3,3′-bipyridin]-5-yl)-3-((dimethylamino)methyl)-5-(trifluoromethyl)benzamide] | – | – | IC50 (Table 2, 3 hours reaction): 36.5 nM |
| Cc1ncc(NC(=O)c2cc(C(C)(C)F)ccn2)cc1-c1cnc(OC(C)C)c(N2CCOCC2)c1 [Example 957, 4-(2-fluoropropan-2-yl)-N-(6′-isopropoxy-2-methyl-5′-morpholino-[3,3′-bipyridin]-5-yl)picolinamide] | – | 6.23 | – |
| Cc1ccc(NC(=O)c2cccnn2)cc1-c1ccnc(N2CCOCC2)c1 [Example 67, N-(4-methyl-3-(2-morpholinopyridin-4-yl)phenyl)pyridazine-3-carboxamide] | – | – | IC50 (Table 2, 3 hours reaction): 500 nM |

| Structure (SMILES) | IC50 [1] [nM] | IC50 [2] [nM] | also measured |
| --- | --- | --- | --- |
| CCNc1nc(-c2cc(NC(=O)c3cccc(C(F)F)c3)ccc2C)cc(N2CCOCC2)n1 [Example 698, 3-(difluoromethyl)-N-(3-(2-(ethylamino)-6-morpholinopyrimidin-4-yl)-4-methylphenyl)benzamide] | 0.7 | – | – |
| CCCN(C(=O)c1cccc(C(F)(F)F)c1)c1cnc(C)c(-c2cnc(OC3CCOCC3)c(N3CCOCC3)c2)c1 [Example 330, N-(2-methyl-5′-morpholino-6′-((tetrahydro-2H-pyran-4-yl)oxy)-[3,3′-bipyridin]-5-yl)-N-propyl-3-(trifluoromethyl)benzamide] | – | – | IC50 (Table 2, 3 hours reaction): 2400 nM |
| Cc1ncc(NC(=O)c2cccc(C(F)F)c2)cc1-c1cc(N2CCOCC2)c2nccn2c1 [Example 880, 3-(difluoromethyl)-N-(6-methyl-5-(8-morpholinoimidazo[1,2-a]pyridin-6-yl)pyridin-3-yl)benzamide] | – | 3.2 | – |
| Cc1ncc(NC(=O)c2ccnc(C(C)(F)F)c2)cc1-c1cc(N2CCOCC2)nc(N2CC(C)(O)C2)c1 [Example 1105, 2-(1,1-difluoroethyl)-N-(2′-(3-hydroxy-3-methylazetidin-1-yl)-2-methyl-6′-morpholino-[3,4′-bipyridin]-5-yl)isonicotinamide] | – | 5.62 | – |
| CCOc1ncc(-c2cc(NC(=O)c3cnnc(C(C)(C)C#N)c3)ccc2C)cc1N1CCOCC1 [Example 284, 6-(2-cyanopropan-2-yl)-N-(3-(6-ethoxy-5-morpholinopyridin-3-yl)-4-methylphenyl)pyridazine-4-carboxamide] | – | – | IC50 (Table 2, 3 hours reaction): 1.1 nM |
| Cc1ncc(NC(=O)c2ccnc(C(C)(C)F)c2)cc1-c1cc(N2CCOCC2)c(S(C)(=O)=O)nn1 [Example 927, 2-(2-fluoropropan-2-yl)-N-(6-methyl-5-(6-(methylsulfonyl)-5-morpholinopyridazin-3-yl)pyridin-3-yl)isonicotinamide] | – | 7.91 | – |
| Cc1ccc(NC(=O)c2cccc(C(F)(F)F)c2)cc1-c1cc(N2CCOCC2)nc(N2C[C@H](O)CC2=O)c1 [Example 1064, (R)—N-(3-(2-(4-hydroxy-2-oxopyrrolidin-1-yl)-6-morpholinopyridin-4-yl)-4-methylphenyl)-3-(trifluoromethyl)benzamide] | – | 0.65 | – |
| Cc1ccc(NC(=O)c2ccnc(C(C)(C)C#N)c2)cc1-c1cc(N2CCOCC2)c(=O)n(C)n1 [Example 640, 2-(2-cyanopropan-2-yl)-N-(4-methyl-3-(1-methyl-5-morpholino-6-oxo-1,6-dihydropyridazin-3-yl)phenyl)isonicotinamide] | 5.4 | – | – |
| CCOc1nnc(-c2cc(NC(=O)c3ccnc(C(F)(F)CC)c3)ccc2C)cc1N1CCOCC1 [Example 560, 2-(1,1-difluoropropyl)-N-(3-(6-ethoxy-5-morpholinopyridazin-3-yl)-4-methylphenyl)isonicotinamide] | 1 | – | – |
| Cc1ccc(NC(=O)c2cnnc(C3CC3)c2)cc1-c1cc(NCCO)nc(N2CCOCC2)c1 [Example 1048, 6-cyclopropyl-N-(3-(2-((2-hydroxyethyl)amino)-6-morpholinopyridin-4-yl)-4-methylphenyl)pyridazine-4-carboxamide] | – | 1.55 | – |
| CC(F)(F)c1cc(C(=O)Nc2c[nH]c(=O)c(-c3ccnc(N4CCOCC4)c3)c2)ccn1 [Example 1171, 2-(1,1-difluoroethyl)-N-(2′-morpholino-2-oxo-1,2-dihydro-[3,4′-bipyridin]-5-yl)isonicotinamide] | – | 25000 | – |
| Cc1ccc(C(=O)Nc2cccc(C(F)F)c2)cc1-c1cc(N2CCOCC2)n(C)c(=O)c1 [Example 514, N-(3-(difluoromethyl)phenyl)-4-methyl-3-(1-methyl-6-morpholino-2-oxo-1,2-dihydropyridin-4-yl)benzamide] | 1.1 | – | – |
| Cc1ncc(NC(=O)c2ccnc(C(F)(F)F)c2)cc1-c1cc(N2CCOCC2)n2nccc2n1 [Example 798, N-(6-methyl-5-(7-morpholinopyrazolo[1,5-a]pyrimidin-5-yl)pyridin-3-yl)-2-(trifluoromethyl)isonicotinamide] | 1.1 | – | – |
| Cc1ncc(NC(=O)c2cc(C3CC3)on2)cc1-c1cc(N2CCOCC2)c(=O)n(C)c1 [Example 380, 5-cyclopropyl-N-(1′,2-dimethyl-5′-morpholino-6′-oxo-1′,6′-dihydro-[3,3′-bipyridin]-5-yl)isoxazole-3-carboxamide] | – | – | IC50 (Table 2, 3 hours reaction): 12.5 nM |
| COc1nnc(-c2cc(NC(=O)c3ccnc(C(C)(C)C#N)c3)ccc2C)cc1N1CCOCC1 [Example 558, 2-(2-cyanopropan-2-yl)-N-(3-(6-methoxy-5-morpholinopyridazin-3-yl)-4-methylphenyl)isonicotinamide] | 2.1 | – | – |
| Cc1ccc(NC(=O)c2ccnc(C(C)(F)F)c2)cc1-c1cc(N2CCOCC2)c2nccn2n1 [Example 843, 2-(1,1-difluoroethyl)-N-(4-methyl-3-(8-morpholinoimidazo[1,2-b]pyridazin-6-yl)phenyl)isonicotinamide] | 0.8 | – | – |
